The values below come from patent US20210047291A1, “PESTICIDALLY ACTIVE HETEROCYCLIC DERIVATIVES WITH SULFUR CONTAINING SUBSTITUENTS” (SYNGENTA PARTICIPATIONS AG, priority 2018, published 2021).

A word on the mortality: it is the percentage killed. As a reminder, the melting point is the temperature, or range, at which the solid turns liquid.

The subject of data set [1] is Frankliniella occidentalis (Western Flower Thrips). As to the kind of experiment: Example B4: Frankliniella occidentalis feeding/contact activity, sunflower leaf discs. Format: in vivo. The settings on record: foliar, 168 h, application rate of 200 ppm, mixed ages, 7 days after infestation. As to the method:
Sunflower leaf discs were placed on agar in 24-well microtiter plates and sprayed with aqueous test solutions prepared from 10,000 DMSO stock solutions. After drying the leaf discs were infested with a Frankliniella population of mixed ages. The samples were assessed for mortality 7 days after infestation.

Data set [2] concerns Diabrotica Balteata (Corn Root Worm). As to the kind of experiment: Example B2: Diabrotica balteata, maize sprouts, L2 larvae. Format: in vivo. The settings on record: Diabrotica balteata, 96 h, application rate of 200 ppm; L2 larvae; 4 days after infestation; read-out: effect in at least one of the two categories (mortality or growth inhibition). As to the method: Maize sprouts placed onto an agar layer in 24-well microtiter plates were treated with aqueous test solutions prepared from 10,000 ppm DMSO stock solutions by spraying. After drying, the plates were infested with L2 larvae (6 to 10 per well). The samples were assessed for mortality and growth inhibition in comparison to untreated samples 4 days after infestation.

Data set [3] deals with Thrips tabaci (Onion Thrips). Nature of the data set: Example B11: Thrips tabaci feeding/contact activity, sunflower leaf discs. Format: in vivo. The settings on record: foliar, 144 h, application rate of 200 ppm, mixed ages, 6 days after infestation. As to the method: Sunflower leaf discs were placed on agar in 24-well microtiter plates and sprayed with aqueous test solutions prepared from 10,000 ppm DMSO stock solutions. After drying the leaf discs were infested with a thrips population of mixed ages. The samples were assessed for mortality 6 days after infestation.

Data set [4] relates to Euschistus heros (Neotropical Brown Stink Bug). Nature of the data set: Example B3: Euschistus heros, soybean leaves, N2 nymphs. In kind it is in vivo. Particulars: for percent effect (mortality or growth inhibition) at 200 ppm: Euschistus heros, 120 h, application rate of 200 ppm, N2 nymphs, 5 days after infestation, read-out: effect in at least one of the two categories (mortality or growth inhibition); for mortality at 50 ppm: Concentration 50 ppm, Euschistus heros (Example B3), read-out: Mortality (%). As to the method: Soybean leaves on agar in 24-well microtiter plates were sprayed with aqueous test solutions prepared from 10,000 ppm DMSO stock solutions. After drying the leaves were infested with N2 nymphs. The samples were assessed for mortality and growth inhibition in comparison to untreated samples 5 days after infestation.

Data set [5] has as its system Myzus persicae (Green peach aphid). Nature of the data set: Example B5: Myzus persicae feeding/contact activity, sunflower leaf discs. Particulars: foliar; for mortality at 200 ppm: Myzus persicae, 144 h, application rate of 200 ppm, mixed ages, 6 days after infestation, read-out: mortality; for mortality at 12.5 ppm: Concentration 12.5 ppm, Myzus persicae (feeding/contact, Example B5), read-out: Mortality (%). Format: in vivo. As to the method: Sunflower leaf discs were placed onto agar in a 24-well microtiter plate and sprayed with aqueous test solutions prepared from 10,000 ppm DMSO stock solutions. After drying, the leaf discs were infested with an aphid population of mixed ages. The samples were assessed for mortality 6 days after infestation.

The test system of data set [6] is Plutella xylostella (Diamond Back Moth). Nature of the data set: Example B7: Plutella xylostella, artificial diet, L2 larvae. Particulars: 120 h, application rate of 200 ppm, L2 larvae, 5 days after infestation, read-out: effect in at least one of the two categories (mortality or growth inhibition). Format: in vivo. As for the experimental part: 24-well microtiter plates with artificial diet were treated with aqueous test solutions prepared from 10,000 ppm DMSO stock solutions by pipetting. After drying, the plates were infested with L2 larvae (10 to 15 per well). The samples were assessed for mortality and growth inhibition in comparison to untreated samples 5 days after infestation.

Data set [7] has as its system Myzus persicae (Green peach aphid). As to the kind of experiment: Example B6: Myzus persicae systemic activity, pea seedlings. Format: in vivo. Particulars: for mortality at 1.5 ppm: Concentration 1.5 ppm, Myzus persicae (systemic, Example B6), read-out: Mortality (%); for mortality at 24 ppm: Myzus persicae, 144 h, test rate of 24 ppm, mixed ages, 6 days after placing seedlings into test solutions, read-out: mortality. As to the method:
Roots of pea seedlings infested with an aphid population of mixed ages were placed directly into aqueous test solutions prepared from 10,000 DMSO stock solutions. The samples were assessed for mortality 6 days after placing seedlings into test solutions.

Data set [8] relates to Spodoptera littoralis (Egyptian Cotton Leaf Worm). Nature of the data set: Example B9: Spodoptera littoralis, cotton leaf discs (mortality, anti-feeding, growth inhibition). Format: in vivo. Particulars: foliar, 72 h, application rate of 200 ppm, L1 larvae, 3 days after infestation, read-out: control (mortality, anti-feeding effect or growth inhibition). As for the experimental part:
Cotton leaf discs were placed onto agar in 24-well microtiter plates and sprayed with aqueous test solutions prepared from 10,000 ppm DMSO stock solutions. After drying the leaf discs were infested with five L1 larvae. The samples were assessed for mortality, anti-feeding effect, and growth inhibition in comparison to untreated samples 3 days after infestation. Control of Spodoptera littoralis by a test sample is given when at least one of the categories mortality, anti-feedant effect, and growth inhibition is higher than the untreated sample.

In data set [9] the test system is Bemisia tabaci (Cotton White Fly). Nature of the data set: Example B1: Bemisia tabaci feeding/contact activity, cotton leaf discs. Format: in vivo. Particulars: foliar, 144 h, application rate of 200 ppm, adult white flies, 6 days after incubation. As to the method:
Cotton leaf discs were placed on agar in 24-well microtiter plates and sprayed with aqueous test solutions prepared from 10,000 ppm DMSO stock solutions. After drying the leaf discs were infested with adult white flies. The samples were checked for mortality 6 days after incubation.

The subject of data set [10] is Melodoigyne incognita. As to the kind of experiment: Example B14: Melodoigyne incognita juvenile mobility, in vitro profiling in 96 well plate. Particulars: 200 ppm; after 24 h; second stage juveniles; read-out: control (juvenile mobility). In kind it is in vivo. The method in brief:
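Second-stage juveniles (100–150 per well, freshly harvested) were exposed in triplicate to test solutions prepared at 1000, 200, 100, 50, 25 and 12.5 ppm before nematode suspension was added. Plates were kept 24 h at room temperature in the dark. Juvenile mobility was measured by imaging and compared with 12 untreated replicates.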

The test system of data set [11] is Tetranychus urticae (Two-Spotted Spider Mite). As to the kind of experiment: Example B10: Tetranychus urticae feeding/contact activity, bean leaf discs. In kind it is in vivo. Particulars: foliar, 192 h, application rate of 200 ppm, mixed population (mobile stages), 8 days after infestation. As to the method:
Bean leaf discs on agar in 24-well microtiter plates were sprayed with aqueous test solutions prepared from 10,000 ppm DMSO stock solutions. After drying the leaf discs were infested with a mite population of mixed ages. The samples were assessed for mortality on mixed population (mobile stages) 8 days after infestation.

Data set [12] relates to Frankliniella occidentalis (Western Flower Thrips). As to the kind of experiment: Example B22: Frankliniella occidentalis, mixed population, contact/feeding, French bean plants. In kind it is in vivo. The settings on record: Concentration 50 ppm, FRANOC (contact). As for the experimental part: French bean plants were treated with diluted test solutions in a spray chamber. After drying plants were infested with a mixed aged thrips population. 7 days after infestation, samples were assessed for mortality.

Data set [13] has as its system Myzus persicae (Green peach aphid). As to the kind of experiment: Example B20: Myzus persicae, mixed population, systemic into soil (drench), pea seedlings. Format: in vivo. Particulars: Concentration 0.2 ppm, MYZUPE (drench). As for the experimental part:
Pea seedlings cultivated in field soil and infested 1 day before treatment with mixed aged aphid population were treated as drench application and checked for mortality 7 days after treatment.

Data set [14] concerns Frankliniella occidentalis (Western Flower Thrips). As to the kind of experiment: Example B23: Frankliniella occidentalis, mixed population, systemic into soil (drench), French bean plants. Format: in vivo. The settings on record: Concentration 3 ppm, FRANOC (drench). As to the method:
French bean plants cultivated in field soil, were treated via drench application and 1 day after treatment they were infested with mixed aged thrips population. 8 days after infestation samples were assessed for mortality and phytotoxicity symptoms.

The test system of data set [15] is Myzus persicae (Green peach aphid). As to the kind of experiment: Example B19: Myzus persicae, mixed population, contact/feeding, pepper plants. Format: in vivo. The settings on record: Concentration 3 ppm, MYZUPE (contact). As to the method: Pepper plants were infested with mixed aged aphid population and were treated 1 day after infestation with diluted test solutions in a spray chamber. 5 days after treatment samples were assessed for mortality.

Data set [16] has as its system Nilaparvata lugens (Brown Plant Hopper). As to the kind of experiment: Example B21: Nilaparvata lugens, larvicide, feeding/contact, rice plants. In kind it is in vivo. The settings on record: Concentration 3 ppm, NILALU (contact). As to the method: Rice plants were treated with the diluted test solutions in a spray chamber. After drying plants were infested with ˜20 N3 nymphs. 7 days after the treatment samples were assessed for mortality and growth regulation.

As for `CCSc1cc(NC(=O)C2CC2)cnc1-c1nc2cc(C(F)(F)F)ncc2n1C` [P1, N-[5-ethylsulfanyl-6-[3-methyl-6-(trifluoromethyl)imidazo[4,5-c]pyridin-2-yl]-3-pyridyl]cyclopropanecarboxamide], the mortality at 200 ppm in data set [1] and in [3] was at least 80% in each case. Besides, in [2], the percent effect (mortality or growth inhibition) at 200 ppm was at least 80%.

As to `CCS(=O)(=O)c1cc(NC(=O)C2CC2)cnc1-c1nc2cc(C(F)(F)F)ncc2n1C` [P2, N-[5-ethylsulfonyl-6-[3-methyl-6-(trifluoromethyl)imidazo[4,5-c]pyridin-2-yl]-3-pyridyl]cyclopropanecarboxamide], the percent effect (mortality or growth inhibition) at 200 ppm in data set [4], in [2] and in [6] was at least 80% in each case. Further, the mortality at 200 ppm in [5], in [1] and in [3] was at least 80% throughout. Moreover, the mortality at 1.5 ppm in data set [7] was 80%. Further, in [7], the mortality at 24 ppm was at least 80%.

`CCS(=O)(=O)c1cc(NC(=O)C(F)(F)F)ccc1-c1nc2cc(C(F)(F)F)ncc2n1C` [P3, N-[3-ethylsulfonyl-4-[3-methyl-6-(trifluoromethyl)imidazo[4,5-c]pyridin-2-yl]phenyl]-2,2,2-trifluoro-acetamide] had a melting point of 260 °C.

`CCSc1cc(NC(=O)C(C)(C)O)cnc1-c1nc2cc(C(F)(F)F)ncc2n1C` [P7, N-[5-ethylsulfanyl-6-[3-methyl-6-(trifluoromethyl)imidazo[4,5-c]pyridin-2-yl]-3-pyridyl]-2-hydroxy-2-methyl-propanamide] showed a melting point of 195 to 196 °C.

As for `CCS(=O)(=O)c1cc(N(C)C(=O)CSC)cnc1-c1nc2cc(C(F)(F)F)ncc2n1C` [P14, N-[5-ethylsulfonyl-6-[3-methyl-6-(trifluoromethyl)imidazo[4,5-c]pyridin-2-yl]-3-pyridyl]-N-methyl-2-methylsulfanyl-acetamide], the percent effect (mortality or growth inhibition) at 200 ppm in data set [4] and in data set [2] was at least 80% each time. The mortality at 200 ppm in data set [5] and in data set [9] was at least 80% in each case. Further, the percent control (mortality, anti-feedant effect or growth inhibition) at 200 ppm in [8] is at least 80%. The pest or weed control at 200 ppm in [10] was at least 80%. The mortality at 24 ppm in data set [7] was at least 80%.

`CCS(=O)(=O)c1cc(N2CCSCC2=O)cnc1-c1nc2cc(C(F)(F)F)ncc2n1C` [P19, 4-[5-ethyslulfonyl-6-[3-methyl-6-(trifluoromethyl)imidazo[4,5-c]pyridin-2-yl]-3-pyridyl]thiomorpholin-3-one]: the melting point is 211 to 213 °C. The pest or weed control at 200 ppm in [10] is at least 80%.

In [11], `CCN(C(C)=O)c1cnc(-c2nc3cc(C(F)(F)F)ncc3n2C)c(S(=O)(=O)CC)c1` [P21, N-ethyl-N-[5-ethylsulfonyl-6-[3-methyl-6-(trifluoromethyl)imidazo[4,5-c]pyridin-2-yl]-3-pyridyl]acetamide] returned a mortality at 200 ppm of at least 80%. Further, in data set [4], the mortality at 50 ppm was determined as 100% and the percent effect (mortality or growth inhibition) at 200 ppm was at least 80%. Further, in data set [5], the mortality at 200 ppm was at least 80% and the mortality at 12.5 ppm came out at 100%. Further, the mortality at 200 ppm in data set [1] was at least 80%. In addition, the percent effect (mortality or growth inhibition) at 200 ppm in data set [2] is at least 80%. Moreover, the pest or weed control at 200 ppm in data set [10] is at least 80%. In addition, in data set [7], the mortality at 1.5 ppm is 100% and the mortality at 24 ppm was at least 80%.

Consider `CCS(=O)(=O)c1cc(N(C)C(=O)C(C)C)cnc1-c1nc2cc(C(F)(F)F)ncc2n1C` [P27, N-[5-ethylsulfonyl-6-[3-methyl-6-(trifluoromethyl)imidazo[4,5-c]pyridin-2-yl]-3-pyridyl]-N,2-dimethyl-propanamide], for which the percent effect (mortality or growth inhibition) at 200 ppm in data set [4] and in [6] was at least 80% throughout. Also, the mortality at 200 ppm in data set [5] and in [9] was at least 80% throughout. Also, in [10], the pest or weed control at 200 ppm is at least 80%. The mortality at 24 ppm in data set [7] was at least 80%.

As to `CCS(=O)(=O)c1cc(N2CCSC2=O)cnc1-c1nc2cc(C(F)(F)F)ncc2n1C` [P45, 3-[5-ethylsulfonyl-6-[3-methyl-6-(trifluoromethyl)imidazo[4,5-c]pyridin-2-yl]-3-pyridyl]thiazolidin-2-one], the mortality at 200 ppm in data set [11], in data set [5] and in data set [9] was at least 80% each time. In addition, in data set [4], the mortality at 50 ppm came out at 100%. Also, the percent effect (mortality or growth inhibition) at 200 ppm in data set [4], in [2] and in data set [6] was at least 80% in each case. In addition, in [5], the mortality at 12.5 ppm is 80%. The percent control (mortality, anti-feedant effect or growth inhibition) at 200 ppm in [8] was at least 80%. In [10], the pest or weed control at 200 ppm was at least 80%. The mortality at 1.5 ppm in [7] was 50%. In [7], the mortality at 24 ppm is at least 80%.

In turn, `CCS(=O)(=O)c1ccc(N(C)C(C)=O)nc1-c1nc2cc(C(F)(F)F)ncc2n1C` [reference compound] registered a mortality at 50 ppm in data set [12] of 0%. The molecule further yielded a mortality at 0.2 ppm in [13] of 50%. Further, the mortality at 3 ppm was found to be 35% in data set [14], 20% in data set [15] and 30% in [16].
